This is an account of results in patent publication US8222293B2, “Treating learning deficits with inhibitors of Hmg CoA reductase” (Regents of the University of Carolina, priority 2004, dated 2012).

Data set [1] has as its system hippocampal slices of nf1+/− mice. As to the kind of experiment: Hippocampal LTP at the Schaffer collateral/CA1 synapse in slices from treated mice. Format: in vivo, mouse. As to conditions: 10 mg/kg s.c. once per day for 4 days.
Data set [2] concerns nf1+/− mice. As to the kind of experiment: Water maze test (spatial learning). The format is in vivo, mouse. From the text: The basic protocol for the water maze experiments has been previously described. Mice from the 129T2/SvEmsJ-C57B/6N F1 genetic background were given two trials per day (30-s inter-trial intervals) with a probe trial (60 s) at the end of training day 5 and 7.
Spatial problems are among the most common cognitive deficits in individuals affected with NF1. […] Mice were trained with two trials per day.
In the probe trials the platform was removed from the pool and the mice were allowed to search for it for 60 seconds.

Data set [3] relates to nf1+/− mice. As to the kind of experiment: Lateralized reaction time task (attention). The format is in vivo, mouse. The conditions noted are these: 10 mg/kg oral pellets daily, target stimulus duration 0.5 sec. From the text:
Mice were fed 1.5 gm of chow every day in their home cages (1 hr after experiment). […] Mice were trained in miniaturized versions of a “5-choice” box (Med Associates Inc., St Albans Vt.) that was equipped with a curved wall with horizontal array five apertures that could be internally illuminated. The opposite wall was fitted with a food receptacle where pellets were delivered as reinforcers. The animals were shaped to produce a “poke and hold” response in the central aperture. A correct response was scored when the animals correctly poked a side aperture that had been indicated during the poke and hold response. […] When animals performed at 75% accuracy at 1 second target stimulus duration they entered the test phase. Mice were tested on a variable duration condition in which the target aperture was illuminated for 0.5, 1.0 or 2.0 sec (varied from trial to trial within the session). Correct responses/total trials were measured, which vary as a function of the target stimulus duration and was therefore analyzed with repeated measures analysis of variance (the repeated measure being stimulus duration).
Besides spatial impairments, NF-1 patients also show attention deficits. […] For this purpose, a lateralized reaction-time task, a test that measures divided visuo-spatial attention, was used. […]

Data set [4] has as its system nf1+/− mice. The data set is described as follows: Prepulse inhibition. The format is in vivo, mouse. On the procedure: Following an acclimation period of 5 min, mice were presented with a total of 20 noise bursts (40 ms duration, 120 dB, <1 ms rise/fall time). In the prepulse inhibition phase, mice were presented with a total of 90 trials. Three prepulse intensities were tested: 70, 75 and 80 dB. Prepulses were 20 ms in duration with a rise/fall time of less than 1 ms. For each prepulse intensity, there were three types of trial: prepulse alone, prepulse/startle stimulus and startle stimulus alone. In the prepulse/startle stimulus trial, the onset of the prepulse preceded the onset of the startle stimulus by 100 ms. Background noise levels were maintained at 68 dB throughout testing, and the trials were spaced […].
This task assays sensory “gating” of environmental stimuli. A powerful and sudden acoustic stimulus will elicit a whole body startle response. When the startle producing stimulus is preceded by a weak pre-stimulus (by approximately 100 milliseconds) the startle response is inhibited in normal persons and animals. Previous studies show a high incidence of ADHD in NF1 and support an association between ADHD and learning problems in these children.

Another data set concerns p21Ras-GTP. As to the kind of experiment: p21Ras activity assay (GST-Raf1-RBD pull-down) in hippocampal extracts of treated mice.
Data set [5] relates to phosphorylated p44/42 MAPK. The data set is described as follows: Western blot for p44/42 MAP kinase phosphorylation in hippocampal extracts of treated mice. A general note: Immunoblotting shows a protein as a band on a membrane.

Molecules are shown by their SMILES.

Take `CC[C@H](C)C(=O)O[C@H]1C[C@@H](C)C=C2C=C[C@H](C)[C@H](CC[C@@H]3C[C@@H](O)CC(=O)O3)[C@H]21` [lovastatin]: the “LTP deficits of nf1+/− mice” value in data set [1] was “completely reversed the LTP deficits”. Further, in data set [1] (nf1+/− mice, PLSD P=0.602), the “amount of LTP induced, versus WT” value is listed as “equivalent to that of WTs”. Besides, in data set [1] (nf1+/− mice, five theta-burst stimulation, PLSD P<0.05), the “amount of LTP induced, versus untreated nf1+/− mutants” value is recorded as “significantly higher than that induced in mutants”. In addition, the “proximity to exact platform position versus opposite position, probe trial” value in the data set on nf1+/− mice [2] (WT mice on lovastatin, t19=2.159, P<0.05) is listed as “searched closer to the exact platform position than to the opposite position in the pool”; in the data set on nf1+/− mice [2] (nf1+/− mice on lovastatin, t20=2.170, P<0.05), “searched closer to the exact platform position than to the opposite position in the pool”. In the data set on nf1+/− mice [2] (dose effective in nf1+/− mice (10 mg/kg)), the “cognitive function in control mice” value is “did not affect cognitive function in control mice”. Moreover, the “time spent in training quadrant, day 7 probe trial, versus WT” value with nf1+/− mice [2] (nf1+/− mice, 10 mg/kg s.c. 3 days before training then 6 hours before training daily, P=0.862) is listed as “spent as much time as WTs in the training quadrant”. Also, the “time spent in training quadrant, day 7 probe trial, versus mutants given placebo” value in the data set on nf1+/− mice [2] (nf1+/− mice, 10 mg/kg s.c., P<0.05) is listed as “significantly more time than mutants given placebo”. Further, the “correct response rate, versus nf1+/− given placebo” value in the data set on nf1+/− mice [3] (PLSD P<0.05) is given as “significantly higher”. Moreover, in the data set with nf1+/− mice [3] (PLSD P=0.148), the “correct response rate, versus WT mice” value is listed as “indistinguishable from that of WT mice”. Also, the “PPI performance, main effect of treatment” value in the data set on nf1+/− mice [4] (10 mg/kg oral pellets daily, F1,30=6.61, P<0.05) was “resulted in an increase in performance”. The “PPI performance, versus WT animals on placebo” value with nf1+/− mice [4] (nf1+/− animals on lovastatin, PLSD P=0.877) is given as “indistinguishable from that of WT animals on placebo”. Moreover, in the data set with p21Ras-GTP (WT as printed in b156 (FIG. 1c)), the “hippocampal levels of p21Ras-GTP” value was “decreased the hippocampal levels of p21Ras-GTP in WT”. Further, the “active p21Ras (p21Ras-GTP)” value in the data set on p21Ras-GTP (nf1+/− mice, FIG. 1c legend) is “decreased active p21Ras (p21Ras-GTP)”. Further, the “amount of phosphorylated p44/42 MAPK (the active form) in hippocampus” value in data set [5] (WT mice, 0-50 mg/kg s.c. once per day for 4 days, 6 hours after final injection) is reported as “decreased the amount of phosphorylated p44/42 MAPK (the active form) in a dose-dependent fashion”. In addition, in data set [5] (nf1+/− mice, 10 mg/kg s.c. once per day for 4 days), the “levels of phosphorylated p44/42 MAPK in hippocampus” value is “decreased the levels of phosphorylated p44/42 MAPK”.
